Laboratory results as given in patent US10794898B2, “High-throughput, high-precision methods for detecting protein structural changes in living cells” (REGENTS OF THE UNIVERSITY OF MINNESOTA, priority 2014, dated 2020).
Where two headings read alike, the source gives them in different places.

Experiments:
2-color SERCA2a (2CS) = biological target: T1, 2-color SERCA2a (2CS) (Canis lupus familiaris, UniProt O46674, INS508[…]); test: Live-cell 2-color SERCA (2CS) FRET assay in fluorescence lifetime plate reader; assay type: cell-based, canine; settings: for LOPAC library screen outcome (2CS GFP lifetime outside 3SD window): hit = lifetime change more than 3 SD from DMSO controls, repeated
T1 construct: expressed in transfected cells
Excerpt: Using recombinant DNA technology, the gene for TagRFP was fused to the N-terminus of canine SERCA2a. This fusion position is in the A-domain of the pump. EGFP was fused as an intrasequence tag before residue 509 in the N-domain. The structural model presented in FIG. 1A corresponds to the isoform SERCA1a, which is 84% homologous to SERCA2a. Hou et al. evaluated several intrasequence fusion positions chosen using x-ray crystal structures of SERCA1a to identify unstructured loops and predict large relative distance changes without affecting SERCA function. (Hou et al., PLoS ONE 2012, 7, e40369). The 509 site was chosen because the labeled construct had normal SERCA activity and its intramolecular FRET signal was sensitive to SERCA structural state, as shown below.
(§1) The 96-well plate format LOPAC library was reformatted into four 384-well polystyrene mother plates (Corning, Corning, N.Y.) using a Biomek FX liquid handler (Beckman Coulter, Brea, Calif.), and diluted to 500 μM using DMSO. Column 1, 22, 23 and 24 were loaded with DMSO for in-plate no-compound controls. The LOPAC compounds were distributed in column 2 through 21. Each plate contains 64 wells of DMSO controls, and 320 wells of compounds from the LOPAC library. Black well, high-quality-glass bottom Greiner 384-well microplates (PN 781892) were selected as the assay plates for their optical clarity, low autofluorescence, and low inter-well cross-talks. Compounds (1 μL) were transferred from the mother plates into assay plates using a Mosquito HV liquid handler (TTP Labtech Ltd, UK). The plates were sealed and stored at −20° C. until use. On the day of screening, the plates were equilibrated to room temperature (25° C.). Stable GFP-SERCA2a (donor only control) or 2CS cells were lifted from a 225 cm^2 flask by incubating with TrypLE (Invitrogen) for 5 min. Cells were collected and pelleted for 5 min at 500 g and resuspended in 10 mL PBS, then analyzed on a Countess cell counter (Invitrogen) and diluted to 1×10^6 cells/mL. 49 μL Cells were plated on top of the compounds by a FlexDrop IV reagent dispenser (PerkinElmer, Waltham, Mass.). Assay plates were spun for 1 min at 200 g and allowed to incubate at RT for 20 min before reading on a fluorescence lifetime plate reader (constructed in collaboration with Fluorescence Innovations, Inc., Minneapolis, Minn.). GFP fluorescence was excited with a 473 nm microchip laser from Concepts Research Corporation (Belgium, Wis.) and emission was filtered with 490 nm long pass and 520/35 nm band pass filters from Semrock (Rochester, N.Y.).
Time-resolved fluorescence waveforms for each well were fitted to single-exponential decays using global analysis software. Each plate contained 64 control wells with only DMSO, and a hit was defined as a compound that changed the 2CS donor lifetime by more than three times the standard deviation (SD) relative to the controls. Fluorescent compounds that caused the intensity of both untransfected HEK cells and 2CS cells to be more than 3SD outside the mean of the 64 controls on a plate were excluded from the hits as likely false positives.

SERCA = biological target: T2, SERCA (Sus scrofa, UniProt P11607); test: Enzyme-coupled, NADH-linked SERCA ATPase assay in pig cardiac SR; assay type: biochemical; design: inhibition of ATPase activity: dose or concentration left out as unconfirmed
T2 construct: Cardiac sarcoplasmic reticulum (SR) vesicles were prepared from the ventricular tissue of swine hearts; from tissue; host or cells: ventricular tissue of swine hearts (cardiac SR vesicles)
T2 sequence (P11607 1-997 isoform P11607-2): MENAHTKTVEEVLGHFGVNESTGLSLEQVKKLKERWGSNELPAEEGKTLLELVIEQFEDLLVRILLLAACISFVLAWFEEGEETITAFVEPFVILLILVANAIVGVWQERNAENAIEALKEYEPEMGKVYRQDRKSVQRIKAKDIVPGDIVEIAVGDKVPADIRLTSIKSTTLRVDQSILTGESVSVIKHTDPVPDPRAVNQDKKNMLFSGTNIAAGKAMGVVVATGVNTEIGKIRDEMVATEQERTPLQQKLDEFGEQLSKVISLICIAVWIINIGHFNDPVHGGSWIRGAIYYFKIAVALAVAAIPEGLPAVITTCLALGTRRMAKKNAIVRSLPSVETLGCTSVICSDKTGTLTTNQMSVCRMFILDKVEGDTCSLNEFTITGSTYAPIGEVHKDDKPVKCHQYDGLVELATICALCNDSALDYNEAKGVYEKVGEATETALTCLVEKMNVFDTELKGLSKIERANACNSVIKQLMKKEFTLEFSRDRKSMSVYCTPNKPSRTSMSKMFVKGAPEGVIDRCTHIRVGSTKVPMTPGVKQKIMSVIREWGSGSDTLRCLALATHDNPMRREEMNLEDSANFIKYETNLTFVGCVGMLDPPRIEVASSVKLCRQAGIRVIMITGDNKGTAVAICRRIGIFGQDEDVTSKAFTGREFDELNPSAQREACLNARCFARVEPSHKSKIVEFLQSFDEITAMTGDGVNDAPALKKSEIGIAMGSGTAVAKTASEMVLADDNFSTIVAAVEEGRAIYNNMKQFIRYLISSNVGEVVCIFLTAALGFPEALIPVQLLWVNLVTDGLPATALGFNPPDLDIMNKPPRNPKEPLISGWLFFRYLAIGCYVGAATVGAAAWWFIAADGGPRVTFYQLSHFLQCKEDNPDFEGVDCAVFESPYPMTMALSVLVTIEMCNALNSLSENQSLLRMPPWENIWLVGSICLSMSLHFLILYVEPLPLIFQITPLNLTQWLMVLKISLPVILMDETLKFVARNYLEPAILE
Description: An enzyme-coupled, NADH-linked ATPase assay was used to measure SERCA ATPase activity (Stergiopoulos et al., BMC Health Serv Res 2012, 12, 345). in 96-well microplates. Each well contained 50 mM MOPS (pH 7.0), 100 mM KCl, 5 mM MgCl2, 1 mM EGTA, 0.2 mM NADH, 1 mM phosphoenol pyruvate, 10 IU/mL of pyruvate kinase, 10 IU/mL of lactate dehydrogenase, 3.5 μg/mL of the calcium ionophore A23187, and CaCl2 added to set free [Ca^2+] to the desired values. (Mueller et al., Biochemistry 2004, 43, 8754-8765). 2.5 μg of cardiac SR or 25 μg of HEK cell homogenate were used in each well to correct for the difference in SERCA content. The assay was started upon the addition of ATP at a final concentration of 5 mM and read in a SpectraMax Plus microplate spectrophotometer (Molecular Devices, Sunnyvale, Calif.), bring the total volume to 200 μL. Results were normalized to SERCA content determined from immunoblotting.
Effects of known activators and LOPAC hits on SERCA ATPase activity was evaluated in pig cardiac SR. Compounds were dissolved in DMSO, and adjusted to […] the concentrations used in the final assay wells. 4 μL prediluted compounds were added to each well to keep the final [DMSO] at 2% (v/v).

Plasmodium falciparum = settings: cited from earlier work
[1] = system: Ca2+ uptake into microsomes; settings: cited from earlier work
GFP-SERCA2a = test: Donor-only control: GFP lifetime in GFP-SERCA2a cells; assay type: cell-based, canine
Description: as §1, with “Compounds (1 μL) were transferred from the mother plates into assay plates using a Mosquito HV liquid handler (TTP Labtech Ltd, UK). The plates were sealed and stored at −20° C. until use. On the day of screening, the plates were equilibrated to room temperature (25° C.). Stable GFP-SERCA2a (donor only control) or 2CS cells were lifted from a 225 cm^2 flask by incubating with TrypLE (Invitrogen) for 5 min.” left out, “49 μL Cells were plated on top of the compounds by a FlexDrop IV reagent dispenser (PerkinElmer, Waltham, Mass.).” left out
Time-resolved fluorescence waveforms for each well were fitted to single-exponential decays using global analysis software. […]

Cc1ccc2cccc(NC(=O)c3ccc(OC(C)C)cc3)c2n1 [CDN1163]
effect on FRET between GFP and RFP in 2CS (2-color SERCA2a (2CS); dose-response, live cells): reduce FRET
mode of SERCA activation (SERCA): increasing the activity at saturating [Ca^2+]

CC(=O)C1=C(O)[C@@H]2[C@H]3c4c[nH]c5cccc(c45)C[C@H]3C(C)(C)N2C1=O [CPA, cyclopiazonic acid]
Kd (SERCA): ~40 nM

[Cl-].c1ccc2c(c1)[I+]c1ccccc1-2 [DPI, diphenyline iodonium chloride]
FRET efficiency at maximal effect (2-color SERCA2a (2CS); basal FRET 0.12): 0.10
LOPAC library screen outcome (2CS GFP lifetime outside 3SD window) (2-color SERCA2a (2CS)): reproducible hits
maximal reduction of FRET (2-color SERCA2a (2CS); maximal effect in dose-response): ~18%
inhibition of ATPase activity (SERCA): < 50%
functional (ATPase) inhibition (SERCA; below 10 μM): very little functional inhibition
IC50 for inhibition of parasite growth (Plasmodium falciparum): submicromolar
inhibition of Ca2+ uptake into microsomes ([1]; 30 µM): 18%
inhibition of Ca2+ uptake into microsomes ([1]; 100 µM): 32%

C/C=C(/C)C(=O)O[C@H]1C(C)=C2[C@H]([C@@H]1OC(=O)CCCCCCC)[C@@](C)(OC(C)=O)C[C@H](OC(=O)CCC)[C@@]1(O)[C@H]2OC(=O)[C@@]1(C)O [TG, thapsigargin]
reduction of FRET (2-color SERCA2a (2CS); at 7.5 nM): ~33%
LOPAC library screen outcome (2CS GFP lifetime outside 3SD window) (2-color SERCA2a (2CS)): reproducible hits
ATPase activity (SERCA; at 7.5 nM): nearly ablated
effect on ATPase activity at the highest concentrations tested (SERCA): completely inhibit ATPase activity

COc1cc(/C=C(\C#N)C(=O)Nc2nnc(C(F)(F)F)s2)ccc1OCc1ccc(C(F)(F)F)cc1C(F)(F)F [XCT 790]
reduction of FRET (2-color SERCA2a (2CS); dose-response assay, concentration not given): ~42%
LOPAC library screen outcome (2CS GFP lifetime outside 3SD window) (2-color SERCA2a (2CS)): reproducible hits
effect on ATPase activity at the highest concentrations tested (SERCA): completely inhibit ATPase activity
effect on the lifetime of GFP-SERCA2a alone (GFP-SERCA2a): no effect
